We go through 18 compounds from patent US8404718B2, “Combinations of pyrazole kinase inhibitors” (Astex Therapeutics Limited, priority 2005, dated 2013).

In one series the target is CDK5/p35 (Homo sapiens, UniProt Q00535). In words: CDK selectivity assay, CDK5/p35. Type of series: biochemical. From the text: (§1) (specific activity approx 500 cpm/pmol, concentration as required).
For series [1], the system named is human colon carcinoma cell line HCT 116. In words: Anti-proliferative activity, Alamar Blue assay. The format is cell-based. The following applies: 72 hours compound incubation, read-out: IC50, inhibition of cell growth, HCT 116. An outline of the steps: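 Cells were allowed to recover for 16 h, then exposed to compounds or combinations for 72 h. Viability was measured by resazurin reduction after 6 h with 10% (v/v) Alamar Blue, read at 535 nm ex/590 […] em. In the non-proliferating format, cells were held at confluence for 96 h before the 72 h treatment.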

For a further series, the target named is T1, CDK2/CyclinA (Homo sapiens, UniProt P24941).
T1 construct: purchased Upstate Biotechnology
In words: Measurement of CDK2 kinase inhibitory activity (IC50), Example 248. Type of series: biochemical. As for the experimental part: Compounds of the invention were tested for kinase inhibitory activity using either the following protocol or the activated CDK2/cyclin A kinase protocol described in Example 250.
1.7 μl of active CDK2/CyclinA (Upstate Biotechnology, 10 U/μl) is diluted in assay buffer (25.0 μl of 10× strength assay buffer (200 mM MOPS pH 7.2, 250 mM (3-glycerophosphate, 50 mM EDTA, 150 mM MgCl2), 11.27 μl 10 mM ATP, 2.5 μl 1M DTT, 25 μl 100 mM sodium orthovanadate, 708.53 μl H2O), and 10 μl mixed with 10 μl of histone substrate mix (60 μl bovine histone H1 (Upstate Biotechnology, 5 mg/ml), 940 μl H2O, 35 μCi γ^33P-ATP) and added to 96 well plates along with 5 μl of various dilutions of the test compound in DMSO (up to 2.5%). The reaction is allowed to proceed for 5 hours before being stopped with an excess of ortho-phosphoric acid (30 μl at 2%).
γ^33P-ATP which remains unincorporated into the histone H1 is separated from phosphorylated histone H1 on a Millipore MAPH filter plate. The wells of the MAPH plate are wetted with 0.5% orthophosphoric acid, and then the results of the reaction are filtered with a Millipore vacuum filtration unit through the wells. Following filtration, the residue is washed twice with 200 μl of 0.5% orthophosphoric acid. Once the filters have dried, 25 μl of Microscint 20 scintillant is added, and then counted on a Packard Topcount for 30 seconds.

The next series deals with Activated CDK2/CyclinA (Homo sapiens, UniProt P24941). Kind of series: Activated CDK2/CyclinA kinase inhibitory activity assay (IC50), Example 250A. Type of series: biochemical.
In another series the target is T2, GSK3-β (Homo sapiens, UniProt P49841).
T2 construct: purchased Upstate Discovery
Kind of series: Inhibitory activity against glycogen synthase kinase-3 (Protocol A or B). The following applies: either Protocol A or Protocol B; read-out: IC50 in the GSK3-B assays. Type of series: biochemical. As for the experimental part:
The activities of the compounds of the invention as inhibitors of GSK-3 were determined using either Protocol A or Protocol B below.
The reaction is allowed to proceed for 3 hours before being stopped with an excess of ortho-phosphoric acid (5 μl at 2%). The filtration procedure is as for Activated CDK2/CyclinA assay above.
GSK3β (human) is diluted to a 10× working stock in 50 mM Tris pH 7.5, 0.1 mM EGTA, 0.1 mM sodium vanadate, 0.1% β-mercaptoethanol, 1 mg/ml BSA.
as §1

For another series, the target named is T3, CDK1/CyclinB (Homo sapiens, UniProt P06493).
T3 construct: purchased Upstate Discovery
Kind of series: CDK1/CyclinB assay. Type of series: biochemical. The following applies: Example 250B protocol or selectivity protocol. As for the experimental part: as §1
The reaction is allowed to proceed for 2 to 4 hours before being stopped with an excess of ortho-phosphoric acid (5 μl at 2%).
γ^33P-ATP which remains unincorporated into the histone H1 is separated from phosphorylated histone H1 on a Millipore MAPH filter plate. The wells of the MAPH plate are wetted with 0.5% orthophosphoric acid, and then the results of the reaction are filtered with a Millipore vacuum filtration unit through the wells. Following filtration, the residue is washed twice with 200 μl of 0.5% orthophosphoric acid. Once the filters have dried, 20 μl of Microscint 20 scintillant is added, and then counted on a Packard Topcount for 30 seconds.

The conditions of series [2]: clinical studies; cited from earlier work.
The subject of a further series is PKA. The note with it: data published in 2002; cited from earlier work.
Another series relates to PKG. The following applies: data published in 2002; cited from earlier work.
For another series, the system named is PKC. The note with it: data published in 2002; cited from earlier work.
A further series has as its system OVCAR-3 tumour cells. The note with it: concentrations of 50 and 100 microM; cited from earlier work.
The next series deals with symptomatic CLL patients. The note with it: initial therapy; cited from earlier work.
A further series in a line: Solubility of the salt. Type of series: physicochemical.
Series [3] in a line: Stability and hygroscopicity of the salt. Type of series: physicochemical. From the text: The term ‘stable’ or ‘stability’ as used herein includes chemical stability and solid state (physical) stability. The term ‘chemical stability’ means that the compound can be stored in an isolated form, or in the form of a formulation in which it is provided in admixture with for example, pharmaceutically acceptable carriers, diluents or adjuvants as described herein, under normal storage conditions, with little or no chemical degradation or decomposition. ‘Solid-state stability’ means the compound can be stored in an isolated solid form, or the form of a solid formulation in which it is provided in admixture with, for example, pharmaceutically acceptable carriers, diluents or adjuvants as described herein, under normal storage conditions, with little or no solid-state transformation (e.g. hydration, dehydration, solvatisation, desolvatisation, crystallisation, recrystallisation or solid-state phase transition).

SMILES strings stand for the structures. Counter-ions that a name gives are not always drawn. Bounds are passed on as bounds.

T2 sequence (P49841 whole entry): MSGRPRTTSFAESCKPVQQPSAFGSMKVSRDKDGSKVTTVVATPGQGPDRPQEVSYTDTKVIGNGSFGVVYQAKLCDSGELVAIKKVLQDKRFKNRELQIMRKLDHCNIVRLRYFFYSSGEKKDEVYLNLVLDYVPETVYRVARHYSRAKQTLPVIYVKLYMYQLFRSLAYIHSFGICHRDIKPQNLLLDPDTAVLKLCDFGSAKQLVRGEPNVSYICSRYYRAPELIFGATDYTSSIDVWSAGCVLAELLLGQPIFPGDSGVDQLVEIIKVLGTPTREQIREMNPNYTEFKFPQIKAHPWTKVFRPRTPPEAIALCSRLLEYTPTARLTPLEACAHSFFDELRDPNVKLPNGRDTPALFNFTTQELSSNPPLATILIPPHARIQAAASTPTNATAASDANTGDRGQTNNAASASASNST
T3 sequence (P06493 whole entry): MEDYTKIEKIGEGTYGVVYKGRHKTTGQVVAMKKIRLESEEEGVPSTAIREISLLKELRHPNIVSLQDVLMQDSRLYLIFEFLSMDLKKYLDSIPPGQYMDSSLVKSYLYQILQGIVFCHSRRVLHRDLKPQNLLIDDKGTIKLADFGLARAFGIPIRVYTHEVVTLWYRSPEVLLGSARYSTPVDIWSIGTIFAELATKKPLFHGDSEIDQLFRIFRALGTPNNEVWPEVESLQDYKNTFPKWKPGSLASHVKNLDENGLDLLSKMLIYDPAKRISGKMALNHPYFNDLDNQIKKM
T3 sequence (P14635 whole entry partner): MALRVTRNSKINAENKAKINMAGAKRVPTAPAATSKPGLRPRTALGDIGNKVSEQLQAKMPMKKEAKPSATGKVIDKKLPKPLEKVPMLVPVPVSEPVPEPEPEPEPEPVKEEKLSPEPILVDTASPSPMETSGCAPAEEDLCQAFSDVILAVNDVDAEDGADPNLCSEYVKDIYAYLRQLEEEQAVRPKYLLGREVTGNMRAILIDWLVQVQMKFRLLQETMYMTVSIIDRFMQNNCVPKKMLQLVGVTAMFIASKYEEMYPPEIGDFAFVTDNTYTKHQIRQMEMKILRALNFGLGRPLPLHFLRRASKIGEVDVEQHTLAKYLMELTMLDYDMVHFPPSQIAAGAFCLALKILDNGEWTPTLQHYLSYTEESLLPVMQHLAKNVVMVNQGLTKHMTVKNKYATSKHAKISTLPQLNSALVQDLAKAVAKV
Sequence of CDK5/p35 (Q00535 whole entry, species assumed): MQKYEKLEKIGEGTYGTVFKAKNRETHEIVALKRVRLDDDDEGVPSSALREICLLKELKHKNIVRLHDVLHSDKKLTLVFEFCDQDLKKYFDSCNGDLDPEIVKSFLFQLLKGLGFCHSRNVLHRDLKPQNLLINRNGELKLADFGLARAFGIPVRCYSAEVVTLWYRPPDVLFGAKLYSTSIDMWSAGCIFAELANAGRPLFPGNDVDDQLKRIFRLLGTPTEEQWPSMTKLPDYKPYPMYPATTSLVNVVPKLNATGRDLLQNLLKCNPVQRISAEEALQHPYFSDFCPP
Sequence of CDK5/p35 (Q15078 whole entry partner, species assumed): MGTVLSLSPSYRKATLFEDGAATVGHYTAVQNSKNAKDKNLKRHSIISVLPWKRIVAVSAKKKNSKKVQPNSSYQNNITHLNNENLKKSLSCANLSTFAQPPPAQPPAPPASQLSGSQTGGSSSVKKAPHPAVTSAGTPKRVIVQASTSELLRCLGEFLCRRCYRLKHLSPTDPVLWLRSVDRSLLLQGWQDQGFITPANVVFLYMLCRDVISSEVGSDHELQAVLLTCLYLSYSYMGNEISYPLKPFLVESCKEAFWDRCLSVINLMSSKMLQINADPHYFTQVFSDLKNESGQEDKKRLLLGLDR

Usually IC50 stands for the point on the concentration scale where inhibition reaches its midpoint. `O=C(Nc1ccc(F)cc1)c1n[nH]cc1NC(=O)c1c(F)cccc1F` [Example 41, 4-(2,6-Difluoro-benzoylamino)-1H-pyrazole-3-carboxylic acid (4-fluoro-phenyl)-amide]: the IC50 (on CDK5/p35; in [1]) was less than 20 µM throughout.
`CC1(C)CC(NC(=O)c2n[nH]cc2NC(=O)c2c(F)cccc2F)CC(C)(C)N1` [Example 88]: the IC50 against CDK2/CyclinA is less than 750 µM.
As to `O=C(NCc1c(Cl)cccc1Cl)c1n[nH]cc1NC(=O)c1c(F)cccc1F` [Example 93], the half-inhibitory concentration (IC50) at CDK2/CyclinA was less than 750 µM; in series [1] it was less than 20 µM.
For the compound `COc1cccc(F)c1C(=O)Nc1c[nH]nc1C(=O)NC1CCNCC1` [Example 142], the IC50 against Activated CDK2/CyclinA is less than 20 µM; at GSK3-β it was less than 10 µM; in series [1], less than 20 µM.
Take `O=C(Nc1c[nH]nc1C(=O)NC1CCNCC1)c1ccc(Cl)cc1` [Example 143]: the IC50 is less than 20 µM against Activated CDK2/CyclinA, less than 10 µM on GSK3-β and less than 20 µM in series [1].
Turning to `O=C(Nc1c[nH]nc1C(=O)NC1CCNCC1)c1cc(-c2ccccc2)cs1` [Example 147], the results for the 50% inhibitory concentration (IC50) (on Activated CDK2/CyclinA; on GSK3-β; in [1]) were less than 20 µM, less than 10 µM and less than 20 µM, respectively.
As to `O=C(NC1CCNCC1)c1n[nH]cc1NC(=O)c1c(F)cccc1Cl` [Example 149], the IC50 against Activated CDK2/CyclinA is less than 20 µM; at GSK3-β it was less than 10 µM; in series [1] it was less than 20 µM.
As for `CN1CCC(NC(=O)c2n[nH]cc2NC(=O)c2cccc3c2OCCO3)CC1` [Example 188], the half-inhibitory concentration (IC50) was less than 20 µM against Activated CDK2/CyclinA, less than 100 µM at CDK1/CyclinB and less than 20 µM in series [1].
`COc1cccc(OC)c1C(=O)Nc1c[nH]nc1C(=O)NC1CCN(C)CC1` [Example 206]: the half-inhibitory concentration (IC50) (against CDK1/CyclinB; in series [1]) was less than 100 µM each time.
Take `CN1CCN(c2ccc(CNC(=O)c3n[nH]cc3-c3ccc(Cl)cc3Cl)cc2)CC1` [Example 226, 4-(2,4-Dichloro-phenyl)-1H-pyrazole-3-carboxylic acid 4-(4-methyl-piperazin-1-yl)-benzylamide]: the IC50 on CDK2/CyclinA was less than 750 µM.
At CDK2/CyclinA, `NC(=O)c1n[nH]cc1-c1ccccc1` [Example 228, 4-Phenyl-1H-pyrazole-3-carboxylic acid amide] returned a concentration for half-maximal inhibition (IC50) of less than 750 µM.
In turn, `CN1CCN(c2ccc(CNC(=O)c3n[nH]cc3-c3ccccc3)cc2)CC1` [Example 230, 4-Phenyl-1H-pyrazole-3-carboxylic acid 4-(4-methyl-piperazin-1-yl)-benzylamide] yielded a concentration for half-maximal inhibition (IC50) against CDK2/CyclinA of less than 750 µM.
On to `Cc1ccc(C)n1-c1c[nH]nc1C(=O)Nc1ccc(F)cc1` [Example 235, 4-(2,5-Dimethyl-pyrrol-1-yl)-1H-pyrazole-3-carboxylic acid(4-fluoro-phenyl)-amide], for which the half-inhibitory concentration (IC50) on CDK2/CyclinA was less than 750 µM.
For the compound `CCCCCCCCCCCCCCCCCCOP(=O)([O-])OC1CC[N+](C)(C)CC1` [KRX-0401, Perifosine], the Half-life in series [2] was roughly 100 h.
Consider `O=S(=O)(NCCNCC=C(c1ccccc1)c1ccccc1)c1cccc2cnccc12` [NL-71-101], for which the concentration for half-maximal inhibition (IC50) in the series with PKA was 9 µM; in the series with PKG, 36 µM; in the series on PKC, 104 µM. Besides, the “Apoptosis in OVCAR-3 tumour cells” value with OVCAR-3 tumour cells is “induced apoptosis”.
As for `Nc1nc(F)nc2c1ncn2[C@@H]1O[C@H](CO)[C@@H](O)[C@@H]1O` [fludarabine], in the series with symptomatic CLL patients, the “Duration of progression-free survival” value was 33 months and the “Rate of complete responses” value is reported as 27%.
For the compound `CS(=O)(=O)O.O=C(NC1CCNCC1)c1n[nH]cc1NC(=O)c1c(Cl)cccc1Cl` [methanesulphonate salt, 4-(2,6-dichlorobenzoylamino)-1H-pyrazole-3-carboxylic acid piperidin-4-ylamide methanesulphonate], the Water solubility entry in “Solubility of the salt” is on record as “excellent”. The Hygroscopicity entry in series [3] is “non-hygroscopicity”.
Usually solubility stands for how much of the substance goes into solution per volume. For the compound `O=C(NC1CCNCC1)c1n[nH]cc1NC(=O)c1c(Cl)cccc1Cl` [methanesulphonic acid salt, 4-(2,6-dichloro-benzoylamino)-1H-pyrazole-3-carboxylic acid piperidin-4-ylamide], in “Solubility of the salt” (pH 4.6, aqueous buffer, acetic acid/sodium acetate buffer, solution pH approximately 4.6), the solubility was roughly 35 mg/mL.
